Results from ChEMBL document CHEMBL5042510, “Structure-Guided Discovery of Aminoquinazolines as Brain-Penetrant and Selective LRRK2 Inhibitors” (J Med Chem, 2022).
pIC50: −log10 of the molar value.

Key:
[1] = Unbound brain-to-plasma concentration ratio in CD rat 1 to 100 mg/kg, po measured after 120 mins by LC/MS/MS analysis; type: ADME, organism-based; conditions: brain and plasma (unbound), dose 1-100 mg/kg, read-out: K(p,uu,brain)
[2] = AUC in rat at 10 to 400 mg/kg, po qd for 4 days by LC/MS/MS analysis; type: ADME, organism-based; set-up: time 4 day; conditions: in vivo, 96 h, dose 10-400 mg/kg
[3] = Oral bioavailability in Rhesus monkey at 2 mg/kg by LC-MS/MS analysis; type: ADME, organism-based, Macaca mulatta; conditions: in vivo
[4] = Intrinsic clearance in Rhesus monkey at 3 mg/kg, iv by LC-MS/MS analysis; type: ADME, organism-based, Macaca mulatta; conditions: in vivo
mouse Bcrp [5] = experiment: Apparent permeability in mouse Bcrp-transfected dog MDCK-II cells at 0.1 to 1 uM measured after 3 hrs by LC/MS/MS analysis; type: ADME, cell-based, Canis lupus familiaris; conditions: dose 0.1-1 µM
[6] = Toxicity in rat assessed as fold increase in serum ALP levels at 150 mg/kg, po qd administered for 4 days; type: organism-based; conditions: in vivo, 96 h, time 4 day
[7] = Cardiotoxicity in telemetered Wistar Han rat assessed as elevation of systolic blood pressure at 100 mg/kg, po; type: toxicity, organism-based; conditions: in vivo
[8] = Intrinsic clearance in Beagle dog at 1 mg/kg, iv by LC-MS/MS analysis; type: ADME, organism-based, Canis lupus familiaris; conditions: in vivo
mouse Bcrp [9] = experiment: Efflux ratio of apparent permeability across basolateral to apical over apical to basolateral side in mouse Bcrp-transfected dog MDCK-II cells at 0.1 to 1 uM measured after 3 hrs by LC/MS/MS analysis; type: ADME, cell-based, Canis lupus familiaris; conditions: dose 0.1-1 µM
[10] = molecular target: Leucine-rich repeat serine/threonine-protein kinase 2 (Homo sapiens, UniProt Q5S007, G2019S); experiment: Inhibition of recombinant N-terminal GST-fused LRRK2 […] mutant (970 to 2527 residues) (unknown origin) preincubated with enzyme for 15 mins followed by fluorescein-labeled LRRKtide peptide substrate and ATP addition for 90 mins by TR-FRET assay
Sequence of Leucine-rich repeat serine/threonine-protein kinase 2 (Q5S007 whole entry G2019S, the tested form may be a part): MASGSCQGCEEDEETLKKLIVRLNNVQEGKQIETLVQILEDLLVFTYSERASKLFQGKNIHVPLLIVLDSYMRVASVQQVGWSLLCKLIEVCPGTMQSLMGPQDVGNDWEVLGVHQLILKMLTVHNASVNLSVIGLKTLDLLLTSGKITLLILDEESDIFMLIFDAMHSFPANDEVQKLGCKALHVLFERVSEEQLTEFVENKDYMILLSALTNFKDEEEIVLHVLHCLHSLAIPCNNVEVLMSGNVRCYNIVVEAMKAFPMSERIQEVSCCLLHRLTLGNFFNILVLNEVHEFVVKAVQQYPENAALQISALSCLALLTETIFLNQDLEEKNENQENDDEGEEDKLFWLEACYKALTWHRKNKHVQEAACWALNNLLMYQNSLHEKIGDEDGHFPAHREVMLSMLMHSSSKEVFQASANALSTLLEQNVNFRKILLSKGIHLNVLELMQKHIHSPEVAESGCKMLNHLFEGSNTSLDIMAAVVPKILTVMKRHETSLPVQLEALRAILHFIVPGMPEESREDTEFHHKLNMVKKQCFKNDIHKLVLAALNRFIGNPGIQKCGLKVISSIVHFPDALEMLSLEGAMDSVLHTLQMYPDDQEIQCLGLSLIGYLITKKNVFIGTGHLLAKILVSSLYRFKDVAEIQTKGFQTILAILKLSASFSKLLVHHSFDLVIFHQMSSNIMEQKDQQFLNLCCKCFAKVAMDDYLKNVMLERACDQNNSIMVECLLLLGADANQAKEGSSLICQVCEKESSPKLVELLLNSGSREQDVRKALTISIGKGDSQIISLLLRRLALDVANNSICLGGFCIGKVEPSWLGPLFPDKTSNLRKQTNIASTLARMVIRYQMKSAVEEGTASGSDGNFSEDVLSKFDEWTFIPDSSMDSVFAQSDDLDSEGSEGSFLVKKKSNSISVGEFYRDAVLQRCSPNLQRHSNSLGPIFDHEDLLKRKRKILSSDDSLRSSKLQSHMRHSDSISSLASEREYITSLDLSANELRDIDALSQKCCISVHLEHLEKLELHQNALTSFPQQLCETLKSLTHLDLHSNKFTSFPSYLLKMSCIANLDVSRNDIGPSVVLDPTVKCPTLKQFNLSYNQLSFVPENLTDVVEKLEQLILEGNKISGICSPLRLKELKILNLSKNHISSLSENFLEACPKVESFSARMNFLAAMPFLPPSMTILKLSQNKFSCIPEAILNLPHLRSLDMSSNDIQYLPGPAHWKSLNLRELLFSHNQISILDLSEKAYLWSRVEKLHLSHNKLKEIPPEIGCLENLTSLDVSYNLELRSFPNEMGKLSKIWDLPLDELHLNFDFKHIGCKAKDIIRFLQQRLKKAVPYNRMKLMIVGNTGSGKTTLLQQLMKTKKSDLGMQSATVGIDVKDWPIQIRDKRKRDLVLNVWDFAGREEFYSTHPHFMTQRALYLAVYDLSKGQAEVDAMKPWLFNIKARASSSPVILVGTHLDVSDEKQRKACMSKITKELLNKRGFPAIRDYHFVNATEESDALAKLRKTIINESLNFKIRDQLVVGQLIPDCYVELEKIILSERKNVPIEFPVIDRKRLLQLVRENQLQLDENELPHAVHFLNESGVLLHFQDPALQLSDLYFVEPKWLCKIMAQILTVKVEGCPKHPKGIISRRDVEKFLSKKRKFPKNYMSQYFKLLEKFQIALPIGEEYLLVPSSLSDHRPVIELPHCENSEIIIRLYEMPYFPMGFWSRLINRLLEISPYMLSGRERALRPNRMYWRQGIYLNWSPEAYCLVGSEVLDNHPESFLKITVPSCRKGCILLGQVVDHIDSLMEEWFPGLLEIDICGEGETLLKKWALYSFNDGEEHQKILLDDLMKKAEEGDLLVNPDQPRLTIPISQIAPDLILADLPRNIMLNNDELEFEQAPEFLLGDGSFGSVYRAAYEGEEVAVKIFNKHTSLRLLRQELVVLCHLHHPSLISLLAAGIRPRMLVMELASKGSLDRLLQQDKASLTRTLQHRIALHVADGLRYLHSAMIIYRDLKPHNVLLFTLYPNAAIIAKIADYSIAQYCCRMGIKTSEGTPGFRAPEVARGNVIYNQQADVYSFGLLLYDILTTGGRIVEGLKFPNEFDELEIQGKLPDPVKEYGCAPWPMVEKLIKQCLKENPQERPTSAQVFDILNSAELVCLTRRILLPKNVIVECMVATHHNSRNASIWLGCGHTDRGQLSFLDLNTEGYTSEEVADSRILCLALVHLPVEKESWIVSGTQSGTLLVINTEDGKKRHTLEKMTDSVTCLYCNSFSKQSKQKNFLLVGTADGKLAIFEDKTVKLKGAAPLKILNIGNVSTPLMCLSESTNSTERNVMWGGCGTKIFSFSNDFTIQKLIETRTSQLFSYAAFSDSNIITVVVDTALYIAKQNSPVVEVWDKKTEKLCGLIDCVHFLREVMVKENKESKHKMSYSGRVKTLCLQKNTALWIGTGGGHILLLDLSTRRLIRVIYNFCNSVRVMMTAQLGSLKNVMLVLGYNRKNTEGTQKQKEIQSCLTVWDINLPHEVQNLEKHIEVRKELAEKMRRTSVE

[11] = Oral bioavailability in Wistar Han rat at 5 mg/kg by LC-MS/MS analysis; type: ADME, organism-based; conditions: in vivo
Salmonella typhimurium [12] = experiment: Mutagenicity in Salmonella typhimurium TA1535 at 30 to 5000 ug incubated for 48 hrs in presence of liver S9 fraction by AMES test; type: toxicity, organism-based, Salmonella enterica subsp. enterica serovar Typhimurium; conditions: s9, 48 h, dose 30-5000 µg
GSTA5 = experiment: Toxicity in rat assessed as fold increase in GSTA5 transcriptional activity in liver at 75 mg/kg, po bid administered for 4 days relative to control; type: organism-based; conditions: time 4 day, read-out: FC
[13] = Inhibition of adenosine transporter (unknown origin); set-up: species or system Homo sapiens
[14] = Total plasma clearance in Wistar Han rat at 2 mg/kg, iv by LC-MS/MS analysis; type: ADME, organism-based
[15] = Toxicity in rat assessed as clinical signs of toxicity at 40 to 400 mg/kg, po qd administered for 4 days; type: organism-based; conditions: in vivo, 96 h, dose 40-400 mg/kg, time 4 day
[16] = Toxicity in rat bone marrow at 40 to 400 mg/kg, po qd administered for 4 days by micronucleus assay; type: organism-based; conditions: in vivo, 96 h, dose 40-400 mg/kg, time 4 day
[17] = Toxicity in rat assessed as elevation of AhR gene expression at 10 to 75 mg/kg, po bid administered for 4 days; type: organism-based; conditions: in vivo, 96 h, dose 10-75 mg/kg, time 4 day
Salmonella typhimurium [18] = experiment: Mutagenicity in Salmonella typhimurium TA98 at 30 to 5000 ug incubated for 48 hrs in presence of liver S9 fraction by AMES test; type: toxicity, organism-based, Salmonella enterica subsp. enterica serovar Typhimurium; conditions: s9, 48 h, dose 30-5000 µg

- Kp uu at 2 h [1]: 0.36
- AUC [2]: 99 µM·h
- bioavailability [3]: 18%
- CL [4]: 1295 mL/min/kg
- Papp at 3 h, up to 1 µM (mouse Bcrp [5]): 28 ×10⁻⁶ cm/s
- CL [8]: 445 mL/min/kg
- efflux ratio at 3 h, up to 1 µM (mouse Bcrp [9]): 3.8
- pIC50 [10]: > 9.22
- bioavailability [11]: 83%
- pIC50 [13]: 5.02
- clearance [14]: 19 mL/min/kg
SMILES: O[C@H]1COC[C@H]1N1CC[C@@H](c2cc3nc(Nc4cnn([C@@H]5CC5(F)F)c4Cl)ncc3cc2Cl)[C@H](F)C1
- fold change (FC) [6]: 2
- Activity [7]: Toxic
- Activity (Salmonella typhimurium [12]): Non-Toxic
- fold induction at 96 h (GSTA5): 5
- Activity [15]: Non-Toxic
- Activity [16]: Non-Toxic
- Activity [17]: Non-Toxic
- Activity (Salmonella typhimurium [18]): Non-Toxic
